The source of these data is paper PMC2993163 (Structure (London, England : 1993), 2009).

The test addresses T1, BdRppH (Bdellovibrio bacteriovorus, UniProt Q6MPX4).
T1 sequence (Q6MPX4 1-153): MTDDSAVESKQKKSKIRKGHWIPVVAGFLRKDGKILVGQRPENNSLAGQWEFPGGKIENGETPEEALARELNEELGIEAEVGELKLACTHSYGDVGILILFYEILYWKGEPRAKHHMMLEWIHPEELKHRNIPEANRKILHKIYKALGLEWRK
Put plainly: X-ray crystal structure. The test is classed as binding. To be noted: deposited complex; not described in text.

Regarding `Nc1nc2c(ncn2[C@H]2C[C@H](O)[C@@H](COP(=O)(O)OP(=O)(O)OP(=O)(O)O)O2)c(=O)[nH]1` [dGTP], the X-ray crystal structure entry was “RNA pyrophosphohydrolase in complex with dGTP”.
